Assay results taken from US9278962B2 (Cytokinetics, Inc., priority 2011, dated 2016).

test system: rabbit skeletal myofibrils (approximately 90% fast fibers); test: Activation of fast skeletal myofibrils (PUMA coupled-enzyme ATPase assay, AC1.4); assay type: biochemical; details: Table 2; concentration at which the compound increased enzymatic activity by 40%; calcium at pCa25

Row | SMILES | Mean AC1.4
1 | Cc1ccc(Cc2nsc(NCCc3ccc(Cl)cc3)n2)cc1 [[2-(4-chlorophenyl)ethyl]{3-[(4-methylphenyl)methyl](1,2,4-thiadiazol-5-yl)}amine] | C (C=10-20 uM)
2 | COc1cccc(Cc2nsc(NCC(C)c3ccc(Cl)cc3)n2)c1 (centres unmarked) [[2-(4-chlorophenyl)propyl]{3-[(3-methoxyphenyl)methyl](1,2,4-thiadiazol-5-yl)}amine] | A (A=<1 uM)
3 | CC(CNc1nc(Cc2ccc(F)cc2)ns1)c1ccc(Cl)cc1 (centres unmarked) [[2-(4-chlorophenyl)propyl]{3-[(4-fluorophenyl)methyl](1,2,4-thiadiazol-5-yl)}amine] | B (B=1-10 uM)
4 | CC(C)(CNc1nc(-c2ccccn2)ns1)c1ccc(F)cc1 [[2-(4-fluorophenyl)-2-methylpropyl](3-(2-pyridyl)(1,2,4-thiadiazol-5-yl))amine] | B (B=1-10 uM)
5 | CC(C)(CNc1nc(-c2cccnc2)ns1)c1ccc(F)cc1 [[2-(4-fluorophenyl)-2-methylpropyl](3-(3-pyridyl)(1,2,4-thiadiazol-5-yl))amine] | B (B=1-10 uM)
6 | CC(C)(CNc1nc(-c2ccncc2)ns1)c1ccc(F)cc1 [[2-(4-fluorophenyl)-2-methylpropyl](3-(4-pyridyl)(1,2,4-thiadiazol-5-yl))amine] | B (B=1-10 uM)
7 | CC(C)(CNc1nc(N2CCOCC2)ns1)c1ccc(F)cc1 [[2-(4-fluorophenyl)-2-methylpropyl](3-morpholin-4-yl(1,2,4-thiadiazol-5-yl))amine] | D (D=>20 uM)
8 | CC(C)(CNc1nc(-c2ccccc2)ns1)c1ccc(F)cc1 [[2-(4-fluorophenyl)-2-methylpropyl](3-phenyl(1,2,4-thiadiazol-5-yl))amine] | B (B=1-10 uM)
9 | CC(C)(CNc1nc(-c2cn[nH]c2)ns1)c1ccc(F)cc1 [[2-(4-fluorophenyl)-2-methylpropyl](3-pyrazol-4-yl(1,2,4-thiadiazol-5-yl))amine] | B (B=1-10 uM)
10 | C=Cc1nsc(NCC(C)(C)c2ccc(F)cc2)n1 [[2-(4-fluorophenyl)-2-methylpropyl](3-vinyl(1,2,4-thiadiazol-5-yl))amine] | B (B=1-10 uM)
11 | CC(C)(CNc1ncns1)c1ccc(F)cc1 [[2-(4-fluorophenyl)-2-methylpropyl]-1,2,4-thiadiazol-5-ylamine] | B (B=1-10 uM)
12 | Cn1cc(-c2nsc(NCC(C)(C)c3ccc(F)cc3)n2)cn1 [[2-(4-fluorophenyl)-2-methylpropyl][3-(1-methylpyrazol-4-yl)(1,2,4-thiadiazol-5-yl] | B (B=1-10 uM)
13 | CC(C)(CNc1nc(CCN2CCCCC2)ns1)c1ccc(F)cc1 [[2-(4-fluorophenyl)-2-methylpropyl][3-(2-piperidylethyl)(1,2,4-thiadiazol-5-yl)]amine] | D (D=>20 uM)
14 | COCCCc1nsc(NCC(C)(C)c2ccc(F)cc2)n1 [[2-(4-fluorophenyl)-2-methylpropyl][3-(3-methoxypropyl)(1,2,4-thiadiazol-5-yl)]amine] | B (B=1-10 uM)
15 | COc1cncc(-c2nsc(NCC(C)(C)c3ccc(F)cc3)n2)c1 [[2-(4-fluorophenyl)-2-methylpropyl][3-(5-methoxy(3-pyridyl))(1,2,4-thiadiazol-5-yl)]amine] | B (B=1-10 uM)
16 | COc1ccc(-c2nsc(NCC(C)(C)c3ccc(F)cc3)n2)cn1 [[2-(4-fluorophenyl)-2-methylpropyl][3-(6-methoxy(3-pyridyl))(1,2,4-thiadiazol-5-yl)]amine] | B (B=1-10 uM)
17 | CC(C)(CNc1nc(CN2CCNCC2)ns1)c1ccc(F)cc1 [[2-(4-fluorophenyl)-2-methylpropyl][3-(piperazinylmethyl)(1,2,4-thiadiazol-5-yl)]amine] | C (C=10-20 uM)
18 | CC(C)(CNc1nc(CN2CCCCC2)ns1)c1ccc(F)cc1 [[2-(4-fluorophenyl)-2-methylpropyl][3-(piperidylmethyl)(1,2,4-thiadiazol-5-yl)]amine] | D (D=>20 uM)
19 | CC(C)(CNc1nc(CN2CCCC2)ns1)c1ccc(F)cc1 [[2-(4-fluorophenyl)-2-methylpropyl][3-(pyrrolidinylmethyl)(1,2,4-thiadiazol-5-yl)]amine] | D (D=>20 uM)
20 | CN1CCN(CCc2nsc(NCC(C)(C)c3ccc(F)cc3)n2)CC1 [[2-(4-fluorophenyl)-2-methylpropyl]{3-[2-(4-methylpiperazinyl)ethyl](1,2,4-thiadiazol-5-yl)}amine] | C (C=10-20 uM)
21 | COCCNc1nsc(NCC(C)(C)c2ccc(F)cc2)n1 [[2-(4-fluorophenyl)-2-methylpropyl]{3-[(2-methoxyethyl)amino](1,2,4-thiadiazol-5-yl)}amine] | D (D=>20 uM)
22 | COc1cccc(C(C)c2nsc(N(C)CC(C)(C)c3ccc(F)cc3)n2)c1 (centres unmarked) [[2-(4-fluorophenyl)-2-methylpropyl]{3-[(3-methoxyphenyl)ethyl](1,2,4-thiadiazol-5-yl)}methylamine] | D (D=>20 uM)

Row | SMILES | Mean AC1.4
23 | COc1cccc(Cc2nsc(NCC(C)(C)c3ccc(F)cc3)n2)c1 [[2-(4-fluorophenyl)-2-methylpropyl]{3-[(3-methoxyphenyl)methyl](1,2,4-thiadiazol-5-yl)}amine] | A (A=<1 uM)
24 | COc1cccc(Cc2nsc(N(C)CC(C)(C)c3ccc(F)cc3)n2)c1 [[2-(4-fluorophenyl)-2-methylpropyl]{3-[(3-methoxyphenyl)methyl](1,2,4-thiadiazol-5-yl)}methylamine] | D (D=>20 uM)
25 | COc1ccc(Cc2nsc(NCC(C)(C)c3ccc(F)cc3)n2)cc1 [[2-(4-fluorophenyl)-2-methylpropyl]{3-[(4-methoxyphenyl)methyl](1,2,4-thiadiazol-5-yl)}amine] | A (A=<1 uM)
26 | CN1CCN(Cc2nsc(NCC(C)(C)c3ccc(F)cc3)n2)CC1 [[2-(4-fluorophenyl)-2-methylpropyl]{3-[(4-methylpiperazinyl)methyl](1,2,4-thiadiazol-5-yl)}amine] | C (C=10-20 uM)
27 | CC(C)Nc1nsc(NCC(C)(C)c2ccc(F)cc2)n1 [[2-(4-fluorophenyl)-2-methylpropyl]{3-[(methylethyl)amino](1,2,4-thiadiazol-5-yl)}amine] | C (C=10-20 uM)
28 | COc1cccc(Cc2nsc(NCCc3ccc(F)cc3)n2)c1 [[2-(4-fluorophenyl)ethyl]{3-[(3-methoxyphenyl)methyl](1,2,4-thiadiazol-5-yl)}amine] | B (B=1-10 uM)
29 | Fc1ccc(CCNc2nc(Cc3ccc(F)cc3)ns2)cc1 [[2-(4-fluorophenyl)ethyl]{3-[(4-fluorophenyl)methyl](1,2,4-thiadiazol-5-yl)}amine] | B (B=1-10 uM)
30 | COc1ccc(CCNc2nc(Cc3cccc(OC)c3)ns2)cc1 [[2-(4-methoxyphenyl)ethyl]{3-[(3-methoxyphenyl)methyl](1,2,4-thiadiazol-5-yl)}amine] | D (D=>20 uM)
31 | COc1ccc(CCNc2nc(Cc3ccc(C)cc3)ns2)cc1 [[2-(4-methoxyphenyl)ethyl]{3-[(4-methylphenyl)methyl](1,2,4-thiadiazol-5-yl)}amine] | D (D=>20 uM)
32 | CN(C)CCc1nsc(NCC(C)(C)c2ccc(F)cc2)n1 [[2-(5-{[2-(4-fluorophenyl)-2-methylpropyl]amino}(1,2,4-thiadiazol-3-yl))ethyl]dimethylamine] | D (D=>20 uM)
33 | CC(C)(CNc1nc(-c2ccccc2CO)ns1)c1ccc(F)cc1 [[2-(5-{[2-(4-fluorophenyl)-2-methylpropyl]amino}-1,2,4-thiadiazol-3-yl)phenyl]methan-1-ol] | B (B=1-10 uM)
34 | CN(C)CCN(C)c1nsc(NCC(C)(C)c2ccc(F)cc2)n1 [[2-(dimethylamino)ethyl](5-{[2-(4-fluorophenyl)-2-methylpropyl]amino}(1,2,4-thiadiazol-3-yl))methylamine] | D (D=>20 uM)
35 | COc1ccc(-c2nsc(NCC(C)(C)c3ccc(F)cc3)n2)c(Cl)c1 [[3-(2-chloro-4-methoxyphenyl)(1,2,4-thiadiazol-5-yl)][2-(4-fluorophenyl)-2-methylpropyl]amine] | B (B=1-10 uM)
36 | CC(C)(CNc1nc(-c2ccc3[nH]nc(N)c3c2)ns1)c1ccc(F)cc1 [[3-(3-amino(1H-indazol-5-yl))(1,2,4-thiadiazol-5-yl)][2-(4-fluorophenyl)-2-methylpropyl]amine] | A (A=<1 uM)
37 | CC(C)(CNc1nc(-c2ccc3c(N)n[nH]c3c2)ns1)c1ccc(F)cc1 [[3-(3-amino(1H-indazol-6-yl))(1,2,4-thiadiazol-5-yl)][2-(4-fluorophenyl)-2-methylpropyl]amine] | A (A=<1 uM)
38 | CC(C)(CNc1nc(-c2ccc(F)cc2)ns1)c1ccc(F)cc1 [[3-(4-fluorophenyl)(1,2,4-thiadiazol-5-yl)][2-(4-fluorophenyl)-2-methylpropyl]amine] | B (B=1-10 uM)
39 | CN(C)C(=O)c1cccc(-c2nsc(NCC(C)(C)c3ccc(F)cc3)n2)c1 [[3-(5-{[2-(4-fluorophenyl)-2-methylpropyl]amino}(1,2,4-thiadiazol-3-yl))phenyl]-N,N-dimethylcarboxamide] | B (B=1-10 uM)
40 | CNC(=O)c1cccc(-c2nsc(NCC(C)(C)c3ccc(F)cc3)n2)c1 [[3-(5-{[2-(4-fluorophenyl)-2-methylpropyl]amino}(1,2,4-thiadiazol-3-yl))phenyl]-N-methylcarboxamide] | A (A=<1 uM)
41 | CC(C)(CNc1nc(CCCNS(C)(=O)=O)ns1)c1ccc(F)cc1 [[3-(5-{[2-(4-fluorophenyl)-2-methylpropyl]amino}(1,2,4-thiadiazol-3-yl))propyl](methylsulfonyl)amine] | B (B=1-10 uM)
42 | CC(C)(CNc1nc(-c2cccc(CO)c2)ns1)c1ccc(F)cc1 [[3-(5-{[2-(4-fluorophenyl)-2-methylpropyl]amino}-1,2,4-thiadiazol-3-yl)phenyl]methan-1-ol] | B (B=1-10 uM)
43 | COC/C=C/c1nsc(NCC(C)(C)c2ccc(F)cc2)n1 [[3-((1E)-3-methoxyprop-1-enyl)(1,2,4-thiadiazol-5-yl)][2-(4-fluorophenyl)-2-methylpropyl]amine] | B (B=1-10 uM)
44 | CNC(=O)c1ccc(-c2nsc(NCC(C)(C)c3ccc(F)cc3)n2)cc1 [[4-(5-{[2-(4-fluorophenyl)-2-methylpropyl]amino}(1,2,4-thiadiazol-3-yl))phenyl]-N-methylcarboxamide] | A (A=<1 uM)
